Measured values taken from PubChem BioAssay (NCI).
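Dose response: 5 concentrations. Exposure: 48 h. Format: 96-well plates. Endpoint: linear interpolation; highest concentration if not reached. GI50 is the concentration that inhibits growth by half. TGI denotes the concentration required for complete inhibition of growth.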

Key:
Test in all cases: inhibition of tumour cell growth, NCI panel, 48 h
SR leukemia = system: SR leukemia
A498 renal = system: A498 renal
HOP-92 NSCLC = system: HOP-92 NSCLC
SK-MEL-5 melanoma = system: SK-MEL-5 melanoma
HCC-2998 colon = system: HCC-2998 colon
A549 NSCLC = system: A549 NSCLC
MOLT-4 leukemia = system: MOLT-4 leukemia
DU-145 prostate = system: DU-145 prostate
HT29 colon = system: HT29 colon
SK-OV-3 ovarian = system: SK-OV-3 ovarian
K-562 leukemia = system: K-562 leukemia
HCT-15 colon = system: HCT-15 colon
HS 578T breast = system: HS 578T breast
T-47D breast = system: T-47D breast
ACHN renal = system: ACHN renal
COLO 205 colon = system: COLO 205 colon
MCF7 breast = system: MCF7 breast
UACC-62 melanoma = system: UACC-62 melanoma
RPMI-8226 leukemia = system: RPMI-8226 leukemia
SN12C renal = system: SN12C renal
OVCAR-4 ovarian = system: OVCAR-4 ovarian
NCI-H23 lung = system: NCI-H23 lung
IGROV1 ovarian = system: IGROV1 ovarian
SW-620 colon = system: SW-620 colon
HL-60(TB) leukemia = system: HL-60(TB) leukemia
MALME-3M melanoma = system: MALME-3M melanoma
RXF 393 renal = system: RXF 393 renal
PC-3 prostate = system: PC-3 prostate
786-0 renal = system: 786-0 renal
SNB-19 CNS = system: SNB-19 CNS
NCI-H522 lung = system: NCI-H522 lung
SF-539 CNS = system: SF-539 CNS
MDA-MB-435 = system: MDA-MB-435
SNB-75 CNS = system: SNB-75 CNS
SK-MEL-28 melanoma = system: SK-MEL-28 melanoma
LOX IMVI melanoma = system: LOX IMVI melanoma
NCI/ADR-RES ovarian = system: NCI/ADR-RES ovarian
SF-268 CNS = system: SF-268 CNS
MDA-MB-231 breast = system: MDA-MB-231 breast
CCRF-CEM leukemia = system: CCRF-CEM leukemia
U251 CNS = system: U251 CNS
M14 melanoma = system: M14 melanoma
TK-10 renal = system: TK-10 renal
BT-549 breast = system: BT-549 breast
NCI-H226 lung = system: NCI-H226 lung
KM12 colon = system: KM12 colon
EKVX NSCLC = system: EKVX NSCLC
OVCAR-3 ovarian = system: OVCAR-3 ovarian
OVCAR-8 ovarian = system: OVCAR-8 ovarian
OVCAR-5 ovarian = system: OVCAR-5 ovarian
HOP-62 NSCLC = system: HOP-62 NSCLC
HCT-116 colon = system: HCT-116 colon
SF-295 CNS = system: SF-295 CNS
SK-MEL-2 melanoma = system: SK-MEL-2 melanoma
NCI-H460 lung = system: NCI-H460 lung
UO-31 renal = system: UO-31 renal
CAKI-1 renal = system: CAKI-1 renal
UACC-257 melanoma = system: UACC-257 melanoma

## CC(C)(C#N)c1cc(F)cc(C(=O)Nc2cc(Nc3ncccc3-c3ncnc4nc[nH]c34)ccc2F)c1
SR leukemia
  GI50: 7.31 µM
  TGI: > 10 µM
A498 renal
  GI50: 0.2 µM
  TGI: 1.09 µM
HOP-92 NSCLC
  GI50: 0.137 µM
  TGI: 0.842 µM
SK-MEL-5 melanoma
  GI50: 0.635 µM
  TGI: > 10 µM
HCC-2998 colon
  GI50: 1.12 µM
  TGI: > 10 µM
A549 NSCLC
  GI50: 5.49 µM
  TGI: > 10 µM
MOLT-4 leukemia
  GI50: 4.27 µM
  TGI: > 10 µM
DU-145 prostate
  GI50: 5.51 µM
  TGI: > 10 µM
HT29 colon
  GI50: 0.151 µM
  TGI: > 10 µM
SK-OV-3 ovarian
  GI50: > 10 µM
  TGI: > 10 µM
K-562 leukemia
  GI50: 0.606 µM
  TGI: > 10 µM
HCT-15 colon
  GI50: 3.59 µM
  TGI: > 10 µM
HS 578T breast
  GI50: 1.41 µM
  TGI: > 10 µM
T-47D breast
  GI50: 2.9 µM
  TGI: > 10 µM
ACHN renal
  GI50: 1.85 µM
  TGI: > 10 µM
COLO 205 colon
  GI50: 0.109 µM
  TGI: > 10 µM
MCF7 breast
  GI50: 8.73 µM
  TGI: > 10 µM
UACC-62 melanoma
  GI50: 0.0841 µM
  TGI: > 10 µM
RPMI-8226 leukemia
  GI50: 1.92 µM
  TGI: > 10 µM
SN12C renal
  GI50: 3.11 µM
  TGI: > 10 µM
OVCAR-4 ovarian
  GI50: 4.71 µM
  TGI: > 10 µM
NCI-H23 lung
  GI50: 0.501 µM
  TGI: > 10 µM
IGROV1 ovarian
  GI50: 0.684 µM
  TGI: > 10 µM
SW-620 colon
  GI50: 1.13 µM
  TGI: > 10 µM
HL-60(TB) leukemia
  GI50: 0.123 µM
  TGI: > 10 µM
MALME-3M melanoma
  GI50: 0.0236 µM
  TGI: 0.074 µM
RXF 393 renal
  GI50: 2.22 µM
  TGI: > 10 µM
PC-3 prostate
  GI50: 7.67 µM
  TGI: > 10 µM
786-0 renal
  GI50: > 10 µM
  TGI: > 10 µM
SNB-19 CNS
  GI50: 4.44 µM
  TGI: > 10 µM
NCI-H522 lung
  GI50: 2.66 µM
  TGI: > 10 µM
SF-539 CNS
  GI50: 0.527 µM
  TGI: 5.65 µM
MDA-MB-435
  GI50: 0.307 µM
  TGI: > 10 µM
SNB-75 CNS
  GI50: 3.31 µM
  TGI: > 10 µM
SK-MEL-28 melanoma
  GI50: 0.0746 µM
  TGI: > 10 µM
LOX IMVI melanoma
  GI50: 0.104 µM
  TGI: 1.8 µM
NCI/ADR-RES ovarian
  GI50: 4.58 µM
  TGI: > 10 µM
SF-268 CNS
  GI50: 3.78 µM
  TGI: > 10 µM
MDA-MB-231 breast
  GI50: 0.306 µM
  TGI: 4.8 µM
CCRF-CEM leukemia
  GI50: 3.91 µM
  TGI: > 10 µM
U251 CNS
  GI50: 3.55 µM
  TGI: > 10 µM
M14 melanoma
  GI50: 0.0682 µM
  TGI: 1.02 µM
TK-10 renal
  GI50: > 10 µM
  TGI: > 10 µM
BT-549 breast
  GI50: 3.63 µM
  TGI: > 10 µM
NCI-H226 lung
  GI50: 0.804 µM
  TGI: > 10 µM
KM12 colon
  GI50: 1.73 µM
  TGI: > 10 µM
EKVX NSCLC
  GI50: 6.55 µM
  TGI: > 10 µM
OVCAR-3 ovarian
  GI50: 5.5 µM
  TGI: > 10 µM
OVCAR-8 ovarian
  GI50: 3.16 µM
  TGI: > 10 µM
OVCAR-5 ovarian
  GI50: 0.451 µM
  TGI: > 10 µM
HOP-62 NSCLC
  GI50: 0.475 µM
  TGI: > 10 µM
HCT-116 colon
  GI50: 0.212 µM
  TGI: > 10 µM
SF-295 CNS
  GI50: 3.74 µM
  TGI: > 10 µM
SK-MEL-2 melanoma
  GI50: 0.144 µM
  TGI: 1.17 µM
NCI-H460 lung
  GI50: 2.51 µM
  TGI: > 10 µM
UO-31 renal
  GI50: 0.287 µM
  TGI: 3.64 µM

## CCOC(=O)C1=C(C)NC2SC(=O)/C(=C\c3ccccc3O)N2C1c1ccccc1 (stereo not given)
A498 renal
  GI50: 11.1 µM
  TGI: 33.9 µM
HOP-92 NSCLC
  GI50: 20.8 µM
  TGI: 43.2 µM
SK-MEL-5 melanoma
  GI50: 17.2 µM
  TGI: 32.5 µM
HCC-2998 colon
  GI50: 26.5 µM
  TGI: 64.8 µM
A549 NSCLC
  GI50: 27.2 µM
  TGI: > 100 µM
DU-145 prostate
  GI50: 30.5 µM
  TGI: > 100 µM
HT29 colon
  GI50: 19.5 µM
  TGI: 41.4 µM
SK-OV-3 ovarian
  GI50: 52.8 µM
  TGI: > 100 µM
K-562 leukemia
  GI50: 26.6 µM
  TGI: > 100 µM
HCT-15 colon
  GI50: 30.5 µM
  TGI: > 100 µM
HS 578T breast
  GI50: 17.4 µM
  TGI: 50.2 µM
T-47D breast
  GI50: 16.1 µM
  TGI: 51.7 µM
ACHN renal
  GI50: 28.5 µM
  TGI: 81.4 µM
COLO 205 colon
  GI50: 23.2 µM
  TGI: 72.8 µM
MCF7 breast
  GI50: 86 µM
  TGI: > 100 µM
UACC-62 melanoma
  GI50: 18 µM
  TGI: 41.8 µM
RPMI-8226 leukemia
  GI50: 18.6 µM
  TGI: 53.6 µM
SN12C renal
  GI50: 16.6 µM
  TGI: 30.5 µM
NCI-H23 lung
  GI50: 24.5 µM
  TGI: 53.5 µM
IGROV1 ovarian
  GI50: 25 µM
  TGI: 64.1 µM
SW-620 colon
  GI50: 38.5 µM
  TGI: > 100 µM
HL-60(TB) leukemia
  GI50: 19.6 µM
  TGI: 54.4 µM
CAKI-1 renal
  GI50: 36.8 µM
  TGI: > 100 µM
RXF 393 renal
  GI50: 19 µM
  TGI: 46.9 µM
PC-3 prostate
  GI50: 26.5 µM
  TGI: 74.1 µM
786-0 renal
  GI50: 28.6 µM
  TGI: > 100 µM
SNB-19 CNS
  GI50: 31.5 µM
  TGI: > 100 µM
NCI-H522 lung
  GI50: 26.2 µM
  TGI: 76.3 µM
SF-539 CNS
  GI50: 35.5 µM
  TGI: > 100 µM
MDA-MB-435
  GI50: 19.6 µM
  TGI: 62.5 µM
SNB-75 CNS
  GI50: 20.4 µM
  TGI: 70.8 µM
SK-MEL-28 melanoma
  GI50: 20.5 µM
  TGI: 56.8 µM
UACC-257 melanoma
  GI50: 42.4 µM
  TGI: > 100 µM
LOX IMVI melanoma
  GI50: 18.4 µM
  TGI: 34 µM
NCI/ADR-RES ovarian
  GI50: 23.3 µM
  TGI: 60.3 µM
SF-268 CNS
  GI50: 29.7 µM
  TGI: > 100 µM
MDA-MB-231 breast
  GI50: 33.8 µM
  TGI: 88.4 µM
CCRF-CEM leukemia
  GI50: 10.2 µM
  TGI: 75.2 µM
U251 CNS
  GI50: 21.5 µM
  TGI: 49.6 µM
M14 melanoma
  GI50: 24 µM
  TGI: 65.5 µM
TK-10 renal
  GI50: 21.3 µM
  TGI: 49 µM
BT-549 breast
  GI50: 23.3 µM
  TGI: 59.8 µM
NCI-H226 lung
  GI50: 29 µM
  TGI: 90.4 µM
KM12 colon
  GI50: 16.6 µM
  TGI: 43.5 µM
EKVX NSCLC
  GI50: 34.1 µM
  TGI: > 100 µM
OVCAR-3 ovarian
  GI50: 20.4 µM
  TGI: 49.9 µM
OVCAR-8 ovarian
  GI50: 24.6 µM
  TGI: 61.6 µM
OVCAR-5 ovarian
  GI50: 63 µM
  TGI: > 100 µM
HOP-62 NSCLC
  GI50: 31.4 µM
  TGI: > 100 µM
HCT-116 colon
  GI50: 23.6 µM
  TGI: 63.6 µM
SF-295 CNS
  GI50: 27.2 µM
  TGI: > 100 µM
SK-MEL-2 melanoma
  GI50: 22.2 µM
  TGI: 59.3 µM
NCI-H460 lung
  GI50: 24.3 µM
  TGI: 79.4 µM
UO-31 renal
  GI50: 21.9 µM
  TGI: 66.8 µM
